From ChEMBL document CHEMBL1201862, “PubChem BioAssay data set” (2004)
Activity calls are given as the source filed them.

Assays:
Protein Tat = molecular target: T1, Protein Tat (Human immunodeficiency virus type 1 group M subtype B (isolate HXB2)(HIV-1), UniProt P04608); type: functional;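 further: tat binding to TAR RNA read out by fluorescence polarization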
T1 sequence (P04608 whole entry): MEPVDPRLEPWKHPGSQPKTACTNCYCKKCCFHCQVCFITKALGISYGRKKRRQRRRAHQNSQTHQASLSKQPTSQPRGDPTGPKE

[1] = molecular target: T2, Carboxy-terminal domain RNA polymerase II polypeptide A small phosphatase 1 (Homo sapiens, UniProt Q9GZU7); experiment: CTDSP1 inhibitors, concentration-response, biochemical, absorbance readout, ultra-high-throughput screen actives (AID 540297); type: functional
T2 sequence (Q9GZU7 whole entry): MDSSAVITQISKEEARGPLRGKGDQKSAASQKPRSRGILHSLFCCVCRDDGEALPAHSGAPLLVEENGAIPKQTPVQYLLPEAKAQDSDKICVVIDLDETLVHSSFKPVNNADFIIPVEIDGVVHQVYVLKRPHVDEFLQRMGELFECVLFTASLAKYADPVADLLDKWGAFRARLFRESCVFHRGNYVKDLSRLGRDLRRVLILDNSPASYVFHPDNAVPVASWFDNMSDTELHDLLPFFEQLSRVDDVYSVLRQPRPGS

Bcl-2-like protein 1 = Bcl-2-like protein 1 (Homo sapiens, UniProt Q07817); experiment: blockers of BCLXL peptide binding – biochemical, fluorescence polarization, 1536-well, selectivity assay for MCL1 inhibitor project, dose response (AID 2218)
[2] = molecular target: Induced myeloid leukemia cell differentiation protein Mcl-1 (Homo sapiens, UniProt Q07820); experiment: blockers of MCL1 binding to BIM peptide – biochemical, fluorescence polarization, BIM-BH3 peptide, 1536-well, dose response (AID 2217)
NADPH oxidase 1 = NADPH oxidase 1 (Homo sapiens, UniProt Q9Y5S8); type: functional, cell-based;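 further: Cell-based assay with luminescence read-out, IC50 derived from inhibitor dose-response curves; intracellular ROS from endogenous NOX1 in intact HT29 colon cancer cells; potency of inhibitors that lower the ROS luminescence signal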
Estrogen receptor [3] = molecular target: T3, Estrogen receptor (Homo sapiens, UniProt P03372); experiment: blockers of SRC-3 recruitment to ERα – biochemical, ELISA, streptavidin-HRP readout, orthogonal assay, confirmation (AID 1079)
T3 sequence (P03372 whole entry): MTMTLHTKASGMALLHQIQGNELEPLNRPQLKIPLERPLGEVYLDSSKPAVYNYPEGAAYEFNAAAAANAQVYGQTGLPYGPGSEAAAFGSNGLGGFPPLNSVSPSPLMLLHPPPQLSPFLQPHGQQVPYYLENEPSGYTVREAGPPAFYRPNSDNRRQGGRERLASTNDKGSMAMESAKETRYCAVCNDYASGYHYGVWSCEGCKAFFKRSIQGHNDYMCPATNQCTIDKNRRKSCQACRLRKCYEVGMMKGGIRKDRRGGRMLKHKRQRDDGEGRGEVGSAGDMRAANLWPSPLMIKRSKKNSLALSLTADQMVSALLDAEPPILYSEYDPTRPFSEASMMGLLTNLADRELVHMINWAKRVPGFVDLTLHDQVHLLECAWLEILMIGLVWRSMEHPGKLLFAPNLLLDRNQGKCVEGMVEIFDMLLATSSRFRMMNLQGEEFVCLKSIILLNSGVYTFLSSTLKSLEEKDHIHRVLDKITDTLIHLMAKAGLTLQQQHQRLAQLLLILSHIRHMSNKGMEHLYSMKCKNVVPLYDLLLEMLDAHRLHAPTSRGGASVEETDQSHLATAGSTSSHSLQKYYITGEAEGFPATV

[4] = mitochondrial function rescue without frataxin homolog – Friedreich's ataxia, plus single-dose screen, dose response (AID 1465); type: functional;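 further: yeast depleted of Yfh1p frataxin homolog grown on glycerol needing respiration; WST-1 tetrazolium dye reduction as measure of cellular dehydrogenase metabolic activity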
Aspartyl aminopeptidase = molecular target: T4, Aspartyl aminopeptidase (Plasmodium falciparum 3D7, UniProt Q8I2J3); experiment: Counterscreen for inhibitors of M1 and M17 aminopeptidases: QFRET-based biochemical high throughput dose response assay for inhibitors of the Plasmodium falciparum M18 Aspartyl Aminopeptidase (PFM18AAP). [Related PubChem assays: 1619 (Screening assay (M17LAP inhibitors).), 1445 (Screening assay (M1AAP inhibitors).)]
T4 sequence (Q8I2J3 whole entry): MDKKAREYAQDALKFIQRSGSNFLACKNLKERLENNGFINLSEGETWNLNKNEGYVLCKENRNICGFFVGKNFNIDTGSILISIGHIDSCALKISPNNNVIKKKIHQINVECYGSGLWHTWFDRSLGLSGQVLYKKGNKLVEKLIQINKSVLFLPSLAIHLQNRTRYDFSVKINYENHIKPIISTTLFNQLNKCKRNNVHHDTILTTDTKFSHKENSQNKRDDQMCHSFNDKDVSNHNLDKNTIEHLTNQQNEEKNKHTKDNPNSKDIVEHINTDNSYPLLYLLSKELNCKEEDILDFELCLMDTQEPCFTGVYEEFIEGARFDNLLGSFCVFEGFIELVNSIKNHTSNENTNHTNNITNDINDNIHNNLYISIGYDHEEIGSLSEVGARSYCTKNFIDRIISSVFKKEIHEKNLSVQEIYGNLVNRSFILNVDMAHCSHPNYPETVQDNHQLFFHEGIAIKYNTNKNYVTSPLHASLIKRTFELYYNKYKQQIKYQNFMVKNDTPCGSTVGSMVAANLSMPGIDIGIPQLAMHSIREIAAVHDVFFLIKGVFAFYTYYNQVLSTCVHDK

Leucine aminopeptidase = molecular target: T5, Leucine aminopeptidase (Plasmodium falciparum 3D7, UniProt Q8IL11); experiment: P. falciparum M17LAP inhibitors, primary screen, biochemical, fluorogenic H-Leu-NHMec substrate, 1536-well (AID 1619); type: functional
T5 sequence (Q8IL11 whole entry): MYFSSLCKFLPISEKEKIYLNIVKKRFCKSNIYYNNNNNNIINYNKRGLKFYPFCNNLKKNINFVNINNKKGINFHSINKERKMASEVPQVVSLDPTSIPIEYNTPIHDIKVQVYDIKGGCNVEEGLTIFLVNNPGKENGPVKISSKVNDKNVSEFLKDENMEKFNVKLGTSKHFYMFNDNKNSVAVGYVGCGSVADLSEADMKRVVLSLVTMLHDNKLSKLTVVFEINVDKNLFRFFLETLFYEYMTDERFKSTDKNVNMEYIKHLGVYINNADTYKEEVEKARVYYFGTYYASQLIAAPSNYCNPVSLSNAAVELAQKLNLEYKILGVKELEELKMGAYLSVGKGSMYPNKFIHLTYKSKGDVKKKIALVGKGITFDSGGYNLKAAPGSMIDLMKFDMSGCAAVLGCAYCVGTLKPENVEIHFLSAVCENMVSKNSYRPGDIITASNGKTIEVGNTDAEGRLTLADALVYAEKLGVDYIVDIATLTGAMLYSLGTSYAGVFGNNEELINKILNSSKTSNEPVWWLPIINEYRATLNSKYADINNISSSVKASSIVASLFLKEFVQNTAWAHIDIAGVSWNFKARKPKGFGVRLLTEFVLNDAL

fMet-Leu-Phe receptor = fMet-Leu-Phe receptor (Homo sapiens, UniProt P21462); experiment: formyl peptide receptor binders – dose response (AID 519); type: functional
Procathepsin L = Procathepsin L (Homo sapiens, UniProt P07711); experiment: CTSL1 protease inhibition – biochemical, QFRET, 1536-well, counter-screen for M1/M17 aminopeptidase inhibitor project, dose response (AID 2214)
cells [5] = type: functional, cell-based
[6] = Trypanosoma cruzi growth suppression in host cells – NIH3T3 host cells, beta-gal luminescence, confirmation (AID 2044); type: functional, cell-based;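 further: intracellular parasites grown in NIH/3T3 mouse fibroblasts as host cells; luminescent beta-galactosidase reporter signal from transgenic T. cruzi replicating inside host cells; inhibitors lower the luminescence signal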
[7] = NIH3T3 cell viability loss – ATP luminescence, mouse fibroblasts, counter-screen, dose response (AID 2010); type: functional, cell-based;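 further: cells exposed to compound for about 90 hours before reading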
Nonstructural protein 1 = Nonstructural protein 1 (Influenza A virus, UniProt Q194T2); type: functional, Influenza A virus (A/California/07/2009(H1N1))
[8] = non-specific 3'UTR reporter inhibition in Clone20-Shn3RL – cell-based, Renilla luciferase, cherry-picked, counter-screen for Shn3 inhibitor project, dose response (AID 624133); type: functional
[9] = loss of viability in HepG2 cells – cell-based, CellTiter-Glo, cherry-picked, cytotoxicity control for Shn3 inhibitor project, dose response (AID 624134); type: functional
cells [10] = type: functional, cell-based; remark: listed apart in the source
[11] = fluconazole-exposed Candida albicans growth modulators – fluorescence, retest, confirmation (AID 2467); type: functional, cell-based
[12] = luciferase reporter signal suppression in cells – H4 neuroglioma cells, luminescence, dose response (AID 1990); type: functional, cell-based
[13] = NIH-3T3 fibroblast cytotoxicity, dose response, cytotoxicity control, cell-based, fluorescence, Alamar Blue, secondary assay (AID 2327); type: functional;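 further: NIH-3T3 mouse fibroblasts cultured with fluconazole at 8 µg/mL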
[14] = molecular target: T6, Heat shock factor protein 1 (Mus musculus, UniProt P38532); experiment: decrease of HSF1-responsive luciferase luminescence – cell-based, NIH3T3, dose retest, confirmation (AID 2382); type: functional;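 further: NIH3T3 fibroblasts with HSF1-driven luciferase reporter stressed by proteasome inhibitor MG132; luminescence from HSF1-driven luciferase expression after 8 hours of MG132 stress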
T6 sequence (P38532 whole entry): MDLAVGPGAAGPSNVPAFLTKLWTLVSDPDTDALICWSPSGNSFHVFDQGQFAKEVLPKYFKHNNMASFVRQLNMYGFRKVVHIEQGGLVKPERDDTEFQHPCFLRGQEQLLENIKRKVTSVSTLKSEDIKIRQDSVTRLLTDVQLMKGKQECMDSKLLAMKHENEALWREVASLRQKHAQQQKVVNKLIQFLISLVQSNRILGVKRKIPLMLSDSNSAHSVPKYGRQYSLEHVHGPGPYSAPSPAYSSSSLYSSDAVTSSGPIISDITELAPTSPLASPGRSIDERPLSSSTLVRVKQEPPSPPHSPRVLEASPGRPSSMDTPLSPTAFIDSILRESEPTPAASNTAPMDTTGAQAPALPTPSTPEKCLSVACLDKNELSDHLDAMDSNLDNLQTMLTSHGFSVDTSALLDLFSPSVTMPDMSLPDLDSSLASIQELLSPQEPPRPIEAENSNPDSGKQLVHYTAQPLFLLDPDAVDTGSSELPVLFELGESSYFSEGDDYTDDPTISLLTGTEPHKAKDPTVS

[15] = reduction of Shn3 3'UTR-driven luciferase in osteoblasts – cell-based, Clone20 osteoblasts, firefly luciferase, cherry-picked, dose response (AID 624132); type: functional;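 further: firefly luciferase luminescence from reporter carrying the Shn3 3'UTR in osteoblasts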
INS1 = experiment: INS-1E survival protection against cytokine death – cell-based, luminescence, retest, dose response (AID 449756); type: functional; conditions: Rattus norvegicus;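 further: cell death triggered by IL-1 beta plus TNF-alpha plus IFN-gamma mixture; protective hits raise ATP signal compared with cytokine alone wells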
[16] = Luminescence Cell-Based Dose Response HTS to Identify Inhibitors of 5'UTR Stem-Loop Driven Prion Protein mRNA Translation in H4 Neuroglioblastoma Cells. [Related pubchem assays: 1827 (Project Summary), 1813 (Primary HTS)]; type: functional
[17] = molecular target: T7, Mannose-6-phosphate isomerase (Homo sapiens, UniProt P34949); experiment: MPI enzyme activity inhibition – biochemical, fluorescence intensity, coupled assay, primary screen (AID 1209)
T7 sequence (P34949 whole entry): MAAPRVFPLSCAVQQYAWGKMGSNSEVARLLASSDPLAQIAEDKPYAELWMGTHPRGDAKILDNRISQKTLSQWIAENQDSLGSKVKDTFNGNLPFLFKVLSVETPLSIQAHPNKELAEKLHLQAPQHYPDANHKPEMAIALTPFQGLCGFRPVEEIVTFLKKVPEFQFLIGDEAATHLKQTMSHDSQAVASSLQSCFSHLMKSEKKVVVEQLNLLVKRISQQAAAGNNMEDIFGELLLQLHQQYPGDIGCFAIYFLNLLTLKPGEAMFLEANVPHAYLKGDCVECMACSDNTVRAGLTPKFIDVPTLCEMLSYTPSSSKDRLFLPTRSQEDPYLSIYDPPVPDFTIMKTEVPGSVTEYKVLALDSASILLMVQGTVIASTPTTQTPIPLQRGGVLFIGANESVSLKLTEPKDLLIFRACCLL

[18] = alpha-synuclein stem-loop luciferase translation blockers – H4 neuroglioma cells, luminescence, confirmation (AID 1988); type: functional, cell-based
[19] = viability loss of HPDE-C7K cells – cell-based, fluorescence, HTS, primary screen (AID 431); type: functional; conditions: Homo sapiens
Estrogen receptor [20] = molecular target: T3, Estrogen receptor; experiment: ERα coactivator recruitment enhancers – biochemical, TR-FRET, ERα LBD, dose response (AID 737)
[21] = HPDE-C7 pancreatic duct cell viability loss – fluorescence, HTS (AID 430); type: functional, cell-based; conditions: Homo sapiens

Chain of Procathepsin L (P07711 whole entry): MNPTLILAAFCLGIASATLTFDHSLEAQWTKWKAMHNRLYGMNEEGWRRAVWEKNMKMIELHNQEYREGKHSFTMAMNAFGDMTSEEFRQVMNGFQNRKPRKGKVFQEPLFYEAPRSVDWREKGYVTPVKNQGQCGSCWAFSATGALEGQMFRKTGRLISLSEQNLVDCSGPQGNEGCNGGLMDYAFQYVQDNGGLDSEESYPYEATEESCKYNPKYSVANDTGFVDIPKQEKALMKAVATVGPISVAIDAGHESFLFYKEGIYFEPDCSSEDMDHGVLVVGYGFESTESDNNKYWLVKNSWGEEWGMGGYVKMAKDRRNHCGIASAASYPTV
Chain of fMet-Leu-Phe receptor (P21462 whole entry): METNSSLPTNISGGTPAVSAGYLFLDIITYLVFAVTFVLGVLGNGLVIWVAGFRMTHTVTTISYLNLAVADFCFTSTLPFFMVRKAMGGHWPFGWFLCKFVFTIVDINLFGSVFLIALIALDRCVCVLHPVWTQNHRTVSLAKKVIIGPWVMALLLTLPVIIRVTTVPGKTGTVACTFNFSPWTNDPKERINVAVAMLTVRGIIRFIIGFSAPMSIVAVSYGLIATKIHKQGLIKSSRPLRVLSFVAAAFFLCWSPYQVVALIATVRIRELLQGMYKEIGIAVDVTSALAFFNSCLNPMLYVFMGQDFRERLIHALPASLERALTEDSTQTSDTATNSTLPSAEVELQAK
Chain of Bcl-2-like protein 1 (Q07817 whole entry): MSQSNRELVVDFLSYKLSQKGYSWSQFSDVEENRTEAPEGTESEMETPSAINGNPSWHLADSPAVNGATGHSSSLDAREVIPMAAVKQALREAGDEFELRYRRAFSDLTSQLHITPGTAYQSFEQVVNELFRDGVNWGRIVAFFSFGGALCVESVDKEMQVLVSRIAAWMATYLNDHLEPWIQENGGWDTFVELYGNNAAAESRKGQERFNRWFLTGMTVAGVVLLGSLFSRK
Chain of NADPH oxidase 1 (Q9Y5S8 whole entry): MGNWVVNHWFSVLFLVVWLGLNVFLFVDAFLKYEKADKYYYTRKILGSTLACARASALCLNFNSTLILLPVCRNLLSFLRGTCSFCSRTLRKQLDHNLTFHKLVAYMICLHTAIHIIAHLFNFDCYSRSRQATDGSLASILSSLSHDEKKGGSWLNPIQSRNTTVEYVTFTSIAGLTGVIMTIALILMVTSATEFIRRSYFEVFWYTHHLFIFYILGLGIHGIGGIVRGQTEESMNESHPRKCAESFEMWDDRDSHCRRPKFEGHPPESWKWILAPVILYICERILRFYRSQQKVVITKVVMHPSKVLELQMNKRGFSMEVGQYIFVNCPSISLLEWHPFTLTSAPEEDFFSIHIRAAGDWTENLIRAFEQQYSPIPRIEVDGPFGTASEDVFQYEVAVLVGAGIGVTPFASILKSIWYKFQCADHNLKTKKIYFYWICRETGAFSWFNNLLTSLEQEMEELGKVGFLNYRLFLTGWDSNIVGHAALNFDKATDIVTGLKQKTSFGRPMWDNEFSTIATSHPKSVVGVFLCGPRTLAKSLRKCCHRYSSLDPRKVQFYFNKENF
Chain of Induced myeloid leukemia cell differentiation protein Mcl-1 (Q07820 whole entry): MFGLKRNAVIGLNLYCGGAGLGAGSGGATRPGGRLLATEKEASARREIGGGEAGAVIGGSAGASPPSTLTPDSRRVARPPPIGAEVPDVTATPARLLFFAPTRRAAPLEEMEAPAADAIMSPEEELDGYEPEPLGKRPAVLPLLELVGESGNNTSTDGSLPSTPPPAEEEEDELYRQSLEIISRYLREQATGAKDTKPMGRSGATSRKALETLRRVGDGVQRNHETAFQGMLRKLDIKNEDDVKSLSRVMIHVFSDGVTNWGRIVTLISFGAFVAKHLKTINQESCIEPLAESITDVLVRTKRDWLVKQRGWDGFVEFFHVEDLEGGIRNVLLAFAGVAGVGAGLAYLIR
Chain of Nonstructural protein 1 (Q194T2 whole entry): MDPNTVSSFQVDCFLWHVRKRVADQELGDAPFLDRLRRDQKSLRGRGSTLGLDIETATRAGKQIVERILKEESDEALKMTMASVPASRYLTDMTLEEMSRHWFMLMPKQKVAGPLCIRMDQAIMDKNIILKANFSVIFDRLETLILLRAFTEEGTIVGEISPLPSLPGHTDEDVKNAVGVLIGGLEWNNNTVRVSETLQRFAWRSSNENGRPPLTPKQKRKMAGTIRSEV

Structure (SMILES): Cc1ccc(NC(=O)c2cc(-c3ccc(C)o3)nc3ccccc23)nc1
- IC50 (Protein Tat): > 100 µM (active)
- IC50 [1]: 4.78 µM (active)
- IC50 (Bcl-2-like protein 1): > 109 µM (not active)
- IC50 [2]: > 109 µM (not active)

Structure (SMILES): COc1cc(-c2nc3c4ccccc4c4ccccc4c3[nH]2)ccc1O
- IC50 (NADPH oxidase 1): 1.15 µM (active)

Structure (SMILES): O=C(CCCn1c(=S)[nH]c2ccccc2c1=O)N1CCC(c2ccccc2)CC1
- IC50 (Estrogen receptor [3]): 0.05 µM (not active)

Structure (SMILES): S=C(NCc1ccc2c(c1)OCO2)Nc1ccc(-c2nc3ccccc3[nH]2)cc1
- EC50 [4]: > 100 µM (active)

Structure (SMILES): CCOC(=O)c1c(NC(=O)C2C3CCC(O3)C2C(=O)O)sc(C)c1-c1ccc(C)cc1 (stereo not given)
- IC50 (Aspartyl aminopeptidase): > 73.5 µM (not active)
- IC50 (Leucine aminopeptidase): 6.69 µM (active)
- Ki (fMet-Leu-Phe receptor): 63.3 µM (inactive)
- IC50 (Procathepsin L): > 59.6 µM (not active)

Structure (SMILES): Oc1c(CN2CCOCC2)cc(COCc2ccccc2)c2cccnc12
- EC50 (cells [5]): > 350 µM (not active)
- EC50 [6]: 1.26 µM (active)
- EC50 [7]: 28 µM (active)
- IC50 (Nonstructural protein 1): 4.95 µM (active)
- AC50 [8]: 3.15 µM (active)
- AC50 [9]: 2.13 µM (active)
- EC50 (cells [10]): 6.33 µM (active)
- EC50 [11]: 1.28 µM (active)
- EC50 [12]: 4.97 µM (active)
- EC50 [13]: > 160 µM (inactive)
- EC50 [14]: 36.3 µM (active)
- AC50 [15]: 1.28 µM (active)
- AC50 (INS1): 2.39 µM (active)
- EC50 [16]: 5.43 µM (active)
- IC50 [17]: 25.7 µM (active)
- EC50 [18]: 4.24 µM (active)

Structure (SMILES): CCC(=O)Oc1ccc(C(CC)C(CC)c2ccc(OC(=O)CC)cc2)cc1 (stereo not given)
- EC50 [19]: 10.7 µM (active)
- EC50 (Estrogen receptor [20]): 10.2 µM (active)
- EC50 [21]: 9.19 µM (active)
